Assay: not given
Settings: WHO 2005 TEF values for PCBs in humans; fraction of the toxicity of 2,3,7,8-TCDD dioxin (reference value 1); cited from earlier work
In the case of `Clc1cc(-c2cc(Cl)c(Cl)c(Cl)c2)cc(Cl)c1Cl` [PCB #169, 3′,4,4′,5,5′-hexachlorobiphenyl], the “TEF (toxic equivalency factor)” value is given as 0.03. For `Clc1cc(Cl)c(-c2cc(Cl)c(Cl)c(Cl)c2Cl)cc1Cl` [PCB #180], the “TEF (toxic equivalency factor)” value is listed as 0.00001. In the case of `Clc1cc(-c2cc(Cl)c(Cl)c(Cl)c2Cl)cc(Cl)c1Cl` [PCB #189], the “TEF (toxic equivalency factor)” value is given as 0.00003. For `Clc1ccc(-c2cc(Cl)c(Cl)c(Cl)c2Cl)cc1` [PCB #114], the “TEF (toxic equivalency factor)” value is listed as 0.00003. For `Clc1cc(Cl)c(-c2cc(Cl)c(Cl)c(Cl)c2)cc1Cl` [PCB #167], the “TEF (toxic equivalency factor)” value is given as 0.00003. For `Clc1ccc(-c2cc(Cl)c(Cl)c(Cl)c2)cc1Cl` [PCB #126, 3,3′,4,4′,5-pentachlorobiphenyl], the “TEF (toxic equivalency factor)” value is given as 0.1. In the case of `Clc1ccc(-c2cc(Cl)c(Cl)cc2Cl)cc1Cl` [PCB #118], the “TEF (toxic equivalency factor)” value is given as 0.00003. For `Clc1cc2c(cc1Cl)Oc1cc(Cl)c(Cl)cc1O2` [2,3,7,8-TCDD, reference compound], the “TEF (toxic equivalency factor)” value is given as 1. For `Clc1ccc(-c2ccc(Cl)c(Cl)c2Cl)cc1Cl` [PCB #105], the “TEF (toxic equivalency factor)” value is listed as 0.00003. In the case of `Clc1ccc(-c2cc(Cl)c(Cl)c(Cl)c2)cc1` [PCB #81, 3,4,4′,5-tetrachlorobiphenyl], the “TEF (toxic equivalency factor)” value is given as 0.0003. In the case of `Clc1cc(-c2ccc(Cl)c(Cl)c2Cl)cc(Cl)c1Cl` [PCB #157], the “TEF (toxic equivalency factor)” value is listed as 0.00003. In the case of `Clc1ccc(-c2cc(Cl)c(Cl)c(Cl)c2)c(Cl)c1` [PCB #123], the “TEF (toxic equivalency factor)” value is given as 0.00003. In the case of `Clc1ccc(-c2cc(Cl)c(Cl)c(Cl)c2Cl)cc1Cl` [PCB #156], the “TEF (toxic equivalency factor)” value is listed as 0.00003. In the case of `Clc1ccc(-c2ccc(Cl)c(Cl)c2)cc1Cl` [PCB #77, 3,3′,4,4′-tetrachlorobiphenyl], the “TEF (toxic equivalency factor)” value is listed as 0.0001.

Assay: levels of seven dioxins and ten furans in squalene samples, as TEQs
Settings: WHO 2005 TEFs; + = 1,2,3,4,6,7,8-HpCDD
Experimental: In addition to measuring PCB content, levels of seven dioxins and ten furans were measured. […] TEQs from PCBs, dioxins and furans for these samples were as follows, measured in pg/g according to WHO 2005 TEFs: […]
With `CC(C)=CCCC(C)=CCCC(C)=CCCC=C(C)CCC=C(C)CCC=C(C)C` [squalene, 2,6,10,15,19,23-hexamethyl-2,6,10,14,18,22-tetracosahexaene] the “TEQ from Dioxins” value was 28.158 ^+ pg/g.
